# In US6015877A, “Compounds for inhibition of proteolysis” (President and Fellows of Harvard College, priority 1996, dated 2000):
# Values joined by “and” are separate entries in the source; they are usually repeats but may differ in a detail not shown here. Equal entries are not always repeated. Where two headings read alike, the source gives them in different places. *1 amine or outer side, *2 acyl side, *3 side chain or, on linkers, in order; H or OH if unused. Where a SMILES comes first, the peptide text is derived from it. Where no end group is shown, it is not given here. The star is where a group is joined. Farnesyl = CC(C)=CCC/C(C)=C/CC/C(C)=C/C*; CO = O=C([*:1])[*:2]
# What was measured:
# [1] = test system: protease of bovine liver microsomal membranes (isoprenylated protein endoprotease); test: Inhibition of proteolysis of [3H]-AFC-val-ile-ser by peptides, calf liver microsomes; assay type: biochemical
# Protocol: As expected, the proteolysis of [^3 H]-AFC-val-ile-ser or [^3 H]-(SEQ ID NO: 1) was inhibited by the dipeptide substrate (AFC-val) and by the tripeptide substrate (AFC-val-ile). Incubation of 4 μM substrate along with either 20 μM of the dipeptide or tripeptide led to an approximately 50% diminution in substrate cleavage.
# [2] = test system: protease of bovine liver microsomal membranes (isoprenylated protein endoprotease); test: Proteolysis of N-[3H]acetyl isoprenylated peptide substrates by calf liver microsomal membranes (N-[3H]-AFC formation, HPLC)
# [3] = target: T1, cysteine protease ICE (interleukin-1β converting enzyme) (Homo sapiens, UniProt P29466); conditions: cited from earlier work
# T1 sequence (P29466 120-297 limits assumed): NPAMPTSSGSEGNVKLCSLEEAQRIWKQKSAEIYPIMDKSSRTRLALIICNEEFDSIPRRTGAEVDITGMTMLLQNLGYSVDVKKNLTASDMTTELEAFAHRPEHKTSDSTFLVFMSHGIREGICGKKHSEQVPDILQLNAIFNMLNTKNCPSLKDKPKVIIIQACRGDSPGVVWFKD
# T1 sequence (P29466 317-404 limits assumed): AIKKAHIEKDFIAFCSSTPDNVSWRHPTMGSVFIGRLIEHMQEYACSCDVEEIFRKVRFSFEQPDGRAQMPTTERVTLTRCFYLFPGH
# [4] = test system: membrane-bound isoprenylated protein endoprotease; conditions: 0.5 mM, membrane-bound enzyme; cited from earlier work
# [5] = test system: isoprenylated protein endoprotease; test: Inhibition of the solubilized / partially purified enzyme by non-halomethyl ketone inhibitors; assay type: biochemical, bovine
# [6] = test system: stereospecific proteolytic enzymatic activity in dog pancreatic microsomes; test: Proteolysis of tetrapeptide substrates by dog pancreatic microsomes; assay type: biochemical; conditions: extended incubation conditions
# Protocol: A similar stereospecific proteolytic enzymatic activity was also found in dog pancreatic microsomes. Under extended incubation conditions, where 54% of the tetrapeptide substrate 1 was cleaved by these microsomes, no proteolysis of D-AFC-val-ile-ser 2 could be detected (<1%).
# [7] = test system: isoprenylated protein endoprotease; conditions: 425 ng partially purified protein preparation in 50 μL
# [8] = target: T2, cysteine protease apopain (Homo sapiens, UniProt P42574); conditions: cited from earlier work
# T2 sequence (P42574 29-175 limits assumed): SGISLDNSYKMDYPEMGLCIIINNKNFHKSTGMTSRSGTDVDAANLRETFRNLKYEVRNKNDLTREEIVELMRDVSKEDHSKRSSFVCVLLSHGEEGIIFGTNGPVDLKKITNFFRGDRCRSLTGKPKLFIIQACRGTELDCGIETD
# T2 sequence (P42574 176-277 limits assumed): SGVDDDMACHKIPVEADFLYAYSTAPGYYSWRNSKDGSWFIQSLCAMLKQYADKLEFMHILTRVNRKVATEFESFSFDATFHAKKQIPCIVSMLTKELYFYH
# [9] = test system: isoprenylated protein endoprotease; test: Inhibition of the isoprenylated protein endoprotease by halomethyl ketones (preincubation, 20-fold dilution, Kitz-Wilson); assay type: biochemical, bovine; conditions: for Ki: read-out: K1
# Protocol: A typical procedure of inhibition is given here to illustrate the details of this procedure. A CHAPSO-solubilized protein preparation (2.5 mg/mL) or a partially […] protein preparation (0.17 mg/mL) was incubated with chloromethyl ketone inhibitors at 37° C. for 30 minutes. Aliquots were removed at timed intervals and diluted with assay buffer E for the solubilized preparation of with assay buffer D for the partially purified protein preparation in 20-fold. The final protein and substrate concentrations were 0.12 mg/mL (or 8.5 μg of partially purified protein preparation per milliliter) and 2.0 μM, respectively, except as otherwise noted; the residual enzyme activity was assayed as described above. TPCK and BFC-CMK were characterized by kinetic measurements. The bimolecular rate constant Kinh /K1 and pseudo-first-order kinetic rate constant Kinh were obtained using the Kitz-Wilson method (Kitz & Wilson, 1962). According to Kitz-Wilson method, the irreversible modification of an enzyme by an active-site directed inhibitor is given by [drawing 9] where K1 =[E]·[I]/[E·I] and -d([E]+[E·I])/dt=Kinh [E·I]. [I] and [E] are inhibitor and enzyme concentrations at a certain time, respectively. Under conditions here [I]>>[Eo ], which is the enzyme concentration at time zero, [I] is constant. Under conditions where the enzyme-inhibitor solution is extensively diluted before the assay, a simplified equation 2 can be obtained as follows: […]
# To further establish the specificity of the inactivation process, several commercially available haloketones were studies as putative inactivators of the endoprotease. The structures of these analogs are shown and their activities are shown in Table V. In these studies, the solubilized protein material was preincubated with a chloromethyl ketone inhibitor at 284 μM (unless otherwise noted) for 30 minutes; then 2.5-μL aliquots of the incubated solution were taken and diluted 20-fold for assay of the residual enzyme activity. […] Save for the dipeptide derivatives (ZGGFCMK and ZAPFCMK) derived from TPCK, the other halomethyl ketones tested are virtually inert.
# FIG. 16(A) Time-dependent inhibition. 16B Kitz-Wilson plot (the upper panel) for the inhibition of the isoprenylated protein endoprotease by TPCK. The inhibition studies were carried out at 37° C. using the solubilized endoprotease preparation. Aliquote of the inhibitor-enzyme solution were taken at interval times and diluted by a factor of 20, and the enzyme activity was assayed as described in Methods. (B) (the lower panel) the concentration-dependent inhibition of the endoprotease by TPCK. The inhibition studies were carried out at 37° C. The crude CHAPSO-solubilized endoprotease preparations (0.12 mg/mL) were preincubated for 60 min in 50 μL of buffer E in the presence of 284 μM TPCK or TLCK with 6% DMSO and 2% 2-propanol. After the incubation, the reaction solution was diluted by a factor of 20, and the remaining enzyme activity of the inhibitor-enzyme solution was assayed as described in Methods. Data were represented in mean from duplicate runs.
# [10] = test system: second small proteolytic activity, apparent molecular mass approximately 60 kDa; test: Inhibition of the second small peak of proteolytic activity (approximately 60 kDa) after gel filtration; assay type: biochemical, bovine
# From the text: These properties of CHAPSO make it ideal, among the detergents tested, for the solubilization of the endoprotease. […] It should be noted that a second small amount of proteolytic activity was also found with an apparent molecular mass of approximately 60 kDa, which amounted to approximately 10% of the major peak, but which chromatographed at a smaller molecular size than the major peak. This smaller peak was not investigate further, for several reasons. Quantitatively, it is not significant. […] It also is no known if the smaller peak of activity i s comprised of an endoproteolytic activity or is simply made up of nonspecific proteases. […] All further studies described here will be relevant to the major solubilized peak of activity.
# [11] = Table 1, same enzyme preparation, average of two determinations ±S.D.
# [12] = calf liver microsomal membranes
# [13] = former measurement, different microsome preparation from a different animal
# [14] = solubilized endoprotease preparation, 37° C., Kitz-Wilson
compound,measurement,setting,value
N-Ac-S-all-trans-farnesyl-L-Cys-L-Val-L-Ile [AFC--Val--Ile (1)],diminution in substrate cleavage,"[1]; 20 μM peptide, 4 μM [3H]-AFC-val-ile-ser substrate",approximately 50%
same,Vmax,[2]; [11],57.7 ± 5 pmol/min/mg
same,Km,[2]; [12],9.2 ± 0.21 µM
same,Vmax,[2]; [12],58 ± 4.9 pmol/min/mg
same,substrate activity (in words),[2]; [12],substrates for the enzyme
same,Km,[2]; [13],12.6 µM
same,Vmax,[2]; [13],65.6 pmol/min/mg
"O=C(O)c1cc[c]([Hg][Cl])cc1 [PCMB, p-chloromercuribenzoate]",inhibition of ICE (in words),[3],inactivated
same,inhibition of the endoprotease,[4],41%
same,partially purified enzyme activity inhibited,"[5]; 5 μM, partially purified enzyme",67%
same,enzyme activity (%) detergent extract,"[5]; 0.5 mM PCMB, then +5 mM DTT (regenerated activity)",44 ± 4% and 44%
same,regeneration of the inhibited activity after extensive dialysis and dilution (in words),[5]; detergent extract inhibited by 0.5 mM PCMB,no regeneration of the inhibited activity was observed
same,enzyme activity (%) partially purified,"[5]; inhibitor 5 μm, control 100",33 ± 3%
N-[^3 H]-acetyl-S-all-trans-farnesyl-D-Cys-L-Val-L-Ile-L-Ser [D-AFC-val-ile-ser],tetrapeptide cleaved (proteolysis),[6],< 1%
same,substrate activity (in words),[2]; [12],AFC formation did not occur
AC-val-ile-ser: tetrapeptide substrate with the farnesyl moiety deleted (Ac-CVIS),inhibition of tetrapeptide substrate processing (in words),[1]; 5-fold excess over tetrapeptide substrate,did not interfere with the processing of the substrate
N-acetyl-S-farnesyl-L-cysteine-L-val-L-ile-L-ser (Ac-C(Farnesyl)VIS) [substrate 1],tetrapeptide cleaved (proteolysis),[6],54%
same,Km,[2]; [12],4.8 ± 0.6 µM
same,Vmax,[2]; [12],0.236±0.008 nmol/min/mg protein
same,substrate activity (in words),[2]; [12],substrates for the enzyme
N-[^3 H]acetyl-S-farnesyl-L-cysteinyl-L-valyl-L-isoleucyl-L-methionine [AFC--Val--Ile--Met (9)],Km,[7],0.65 ± 0.08 µM
same,Vmax,[7],1.96±0.07 nmol/(min-mg of protein)
same,Km,[2]; [11],2.96 ± 0.35 µM
same,Vmax,[2]; [11],126.3 ± 4.7 pmol/min/mg
same,substrate activity (in words),[2]; [12],good substrate
"NC(=O)CI [IAA, iodoacetamide]",inhibition of ICE (in words),[3],inactivated
same,inhibition of apopain (in words),[8],inhibited
same,inhibition of the endoprotease (in words),[5]; 0.4 mM,insensitive
"CC(C)C[C@H](NC(=O)[C@H]1O[C@@H]1C(=O)O)C(=O)NCCCCN=C(N)N (relative stereo) [E-64, N-[N-(L-3-trans-carboxyoxiran-2-carbonyl)-L-leucyl]agmatine]",inhibition of ICE (in words),[3],insensitive
same,inhibition of apopain (in words),[8],not
same,inhibition of the endoprotease (in words),[5]; 0.5 mM,insensitive
same,enzyme activity (%) detergent extract,"[5]; inhibitor 0.11 mM, control 100",113 ± 0%
same,enzyme activity (%) partially purified,"[5]; inhibitor 0.5 mM, control 100",103 ± 4%
"Cc1ccc(S(=O)(=O)N[C@@H](Cc2ccccc2)C(=O)CCl)cc1 [TPCK, Nα-tosyl-L-phenylalamine chloromethyl ketone]",inhibition of ICE (in words),[3],inactivated
same,enzyme activity (%),"[9]; 284 μM inhibitor, solubilized protein preincubated 30 minutes, diluted 20-fold, control 100",43 ± 5%
same,regeneration of enzyme activity after gel filtration chromatography and 24-h dialysis (in words),[9]; enzyme preincubated with TPCK,not regenerated
same,Ki,[9],~1000 µM
same,inhibition / inactivation of the endoprotease (in words),[9]; solubilized endoprotease,inhibit the endoprotease well
same,Kinh (s^-1),[9]; [14],(1.4 ± 0.6) × 10^-3 s^-1
same,Kinh /K1,[9]; [14],1.28 ± 0.1 M⁻¹ s⁻¹
same,Ki,[9]; [14],1100 ± 500 µM
same,inhibition of apopain (in words),[8],not
CC(C)[C@H](NC(=O)[C@H](CCCNC(=N)N)NC(=O)N[C@@H](Cc1ccccc1)C(=O)O)C(=O)N[C@H](C=O)CCCNC(=N)N [antipain] ({Phe-CO}-Arg-Val-Arg-aldehyde),inhibition of ICE (in words),[3],insensitive
"c1cnc2c(c1)ccc1cccnc12 [1,10-.phi., N,N'-phenanthroline]",inhibition of the smaller peak of proteolytic activity (in words),[10],potently inhibited
same,inhibition of the endoprotease (in words),[5]; 1 mM,not inhibited
same,effect on the major (primary) solubilized peak of activity (in words),[5]; CHAPSO-solubilized enzyme after gel filtration,without effect on the primary peak of activity
same,enzyme activity (%) detergent extract,"[5]; inhibitor 1 mM, control 100",90 ± 10%
